Source: publication PMC8079988, “Inhibition of TMEM16A by Natural Product Silibinin: Potential Lead Compounds for Treatment of Lung Adenocarcinoma” (Frontiers in Pharmacology, 2021)

Molecular target: T1, TMEM16A (Mus musculus, UniProt Q8BHY3)
T1 construct: gene Ano1
T1 sequence (Q8BHY3 1-960): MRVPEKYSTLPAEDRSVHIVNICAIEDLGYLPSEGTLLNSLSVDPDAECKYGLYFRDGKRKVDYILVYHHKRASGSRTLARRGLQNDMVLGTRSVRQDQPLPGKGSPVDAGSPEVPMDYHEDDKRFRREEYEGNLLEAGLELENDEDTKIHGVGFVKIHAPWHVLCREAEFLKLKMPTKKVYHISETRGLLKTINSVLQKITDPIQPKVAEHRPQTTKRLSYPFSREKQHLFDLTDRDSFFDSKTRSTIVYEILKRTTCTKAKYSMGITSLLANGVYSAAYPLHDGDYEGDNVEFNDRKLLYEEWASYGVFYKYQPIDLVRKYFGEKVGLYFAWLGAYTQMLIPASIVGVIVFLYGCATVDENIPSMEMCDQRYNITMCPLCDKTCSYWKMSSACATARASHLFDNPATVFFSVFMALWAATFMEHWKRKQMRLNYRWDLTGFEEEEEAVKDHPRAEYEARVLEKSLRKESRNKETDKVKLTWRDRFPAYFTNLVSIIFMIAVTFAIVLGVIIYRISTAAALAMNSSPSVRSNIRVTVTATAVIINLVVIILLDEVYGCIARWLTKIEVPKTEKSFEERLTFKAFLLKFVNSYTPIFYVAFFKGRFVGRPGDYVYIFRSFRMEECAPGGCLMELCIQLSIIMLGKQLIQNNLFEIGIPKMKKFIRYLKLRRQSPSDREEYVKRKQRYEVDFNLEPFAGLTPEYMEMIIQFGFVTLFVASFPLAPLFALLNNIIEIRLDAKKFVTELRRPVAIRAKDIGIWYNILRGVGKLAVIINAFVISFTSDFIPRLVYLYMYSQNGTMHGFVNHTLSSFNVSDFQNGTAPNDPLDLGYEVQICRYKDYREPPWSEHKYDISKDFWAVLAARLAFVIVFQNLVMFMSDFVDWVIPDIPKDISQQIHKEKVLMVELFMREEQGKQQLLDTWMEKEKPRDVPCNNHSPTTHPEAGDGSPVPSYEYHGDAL
Assay: whole-cell patch clamp in LA795 cells; YFP quenching; site-directed mutagenesis
Type: cell-based

## COc1cc(C2Oc3cc([C@H]4Oc5cc(O)cc(O)c5C(=O)[C@@H]4O)ccc3OC2CO)ccc1O (stereo partly shown) [silibinin]
  IC50: 30.9 ± 2.1 µM
